Laboratory results: the NIST ThermoML archive (doi:10.1021/je800930v)

Tests used:
[1] = xn = mol fraction of the nth substance listed; settings: 101 kPa, Liquid
[2] = 101 kPa, Liquid

O=C(O)C1CC1 [cyclopropanecarboxylic acid] + CCCO
[1]
Settings	mass density, 298.15 K [kg/m3]	mass density, 308.15 K [kg/m3]	mass density, 318.15 K [kg/m3]	mass density, 328.15 K [kg/m3]	mass density, 338.15 K [kg/m3]	viscosity, 298.15 K [mPa·s]	viscosity, 308.15 K [mPa·s]	viscosity, 318.15 K [mPa·s]	viscosity, 328.15 K [mPa·s]	viscosity, 338.15 K [mPa·s]
x1 = 0.1	832.12	823.73	815.19	806.46	797.48	2.118	1.667	1.325	1.068	0.87
x1 = 0.2	863.75	855.12	846.35	837.42	828.26	2.33	1.833	1.451	1.169	0.953
x1 = 0.3	894.25	885.41	876.46	867.36	858.07	2.568	2.002	1.583	1.276	1.041
x1 = 0.4138	927.62	918.58	909.45	900.17	890.75	2.82	2.19	1.733	1.396	1.141
x1 = 0.5001	952.13	942.95	933.7	924.34	914.85	2.988	2.317	1.834	1.481	1.211
x1 = 0.6	979.77	970.45	961.07	951.61	942.03	3.14	2.437	1.929	1.56	1.282
x1 = 0.7	1006.34	996.88	987.37	977.81	968.16	3.235	2.517	2.002	1.626	1.342
x1 = 0.8	1032.24	1022.8	–	1003.51	993.78	3.299	2.574	2.06	1.678	1.392
x1 = 0.9	1057.82	1048.15	1038.38	1028.6	1018.78	3.316	2.617	2.092	1.713	1.429
x1 = 1	1082.92	1072.97	1063.04	1053.12	1043.2	3.306	2.603	2.102	1.739	1.459

O=C(O)C1CC1 [cyclopropanecarboxylic acid]
[2]
Settings	mass density [kg/m3]	viscosity [mPa·s]
298.15 K	1082.92	3.306
308.15 K	1072.97	2.603
318.15 K	1063.04	2.102
328.15 K	1053.12	1.739
338.15 K	1043.2	1.459
